Laboratory results from patent US5807889A, “Aminomethylindans, -benzofuranes and -benzothiophenes” (H. Lundbeck A/S, priority 1992, dated 1998).

What was measured:
[1] = target: T1, 5-HT1A receptors (Rattus norvegicus, UniProt P19327); test: 8-OH DPAT cue agonism in rats (drug discrimination); assay type: in vivo, male Wistar rats; parameters: agonist effects of a test compound on 5-HT1A receptors in vivo; from tissue; host or cells: living male Wistar rats (endogenous receptor, in vivo); conditions: sc, read-out: 8-OH DPAT Cue Agonism ED50, rats, s.c., usually 30 or 45 min before test
T1 sequence (P19327 1-422): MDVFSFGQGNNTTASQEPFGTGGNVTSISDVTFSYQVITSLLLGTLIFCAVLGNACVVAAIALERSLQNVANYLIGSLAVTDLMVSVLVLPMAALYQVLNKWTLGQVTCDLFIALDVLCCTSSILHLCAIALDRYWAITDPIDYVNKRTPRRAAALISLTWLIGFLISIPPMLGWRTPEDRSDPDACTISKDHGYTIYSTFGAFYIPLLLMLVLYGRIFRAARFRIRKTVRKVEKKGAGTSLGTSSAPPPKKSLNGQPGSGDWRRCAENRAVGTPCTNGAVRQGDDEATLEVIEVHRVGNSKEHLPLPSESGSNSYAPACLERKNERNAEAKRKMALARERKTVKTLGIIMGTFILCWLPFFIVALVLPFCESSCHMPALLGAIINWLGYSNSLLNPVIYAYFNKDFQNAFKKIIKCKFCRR
Experimental: 8-OH DPAT Cue Agonisme in Rats
This test model is used to determine the agonist effects of a test compound on 5-HT1A receptors in vivo. A related method is described by Tricklebank, M. D., et al, Eur. J. Pharmacol., 1987, 133, 47-56; Arnt, J. Pharmacology & Toxicology, 1989, 64, 165.
Male Wistar rats are trained to discriminate between 8-OH-DPAT (0.4 mg/kg, i.p., 15 min pretreatment) and physiological saline in operant chambers equipped with two response levers. Between the levers a dipper is placed, where water rewards (0.1 ml) are presented. The rats are water deprived for at least 24 h and work in a fixed ratio (FR) schedule (final FR=32).
Following 8-OH-DPAT administration responding is reinforced only on a designated (drug) lever, whereas responding on the opposite lever has no consequences. Following saline administration responding is reinforced on the lever opposite to the drug lever. Drug and saline trials alternate randomly between days. The level of s discrimination occuracy is expressed as the per cent drug responses and is calculated as the number of correct responses ×100 divided by the sum of the correct and incorrect responses before the first reward. The time to the first reward is also recorded as a measure of reaction time. When stable occuracy (mean correst responding=90%; individual rats at least 75% correct responding) is obtained test sessions are included between training days. Test compound is injected s.c. usually 30 min or 45 min, respectively, before beginning of the test. The test trial is terminated when a total of 32 responses are made on either lever or when 20 min have elapsed. No reward is given and the rats have free access to water for 20-30 min after the test. The effects are expressed as per cent drug responding. Only results from rats making at least 10 responses on one lever are included in data analysis. Furthermore, only test sessions in which at least half of the rats respond are included.
The per cent inhibition of drug response obtained for each dose of test compound is used to calculate ED50 values by log-probit analysis.

[2] = target: T1, 5-HT1A receptors; test: Inhibition of 3H-8-OH-DPAT binding to serotonin 5-HT1A receptors in rat brain in vitro; parameters: 5-HT1A receptors in membranes from rat brain minus cerebellum; from tissue; host or cells: brain minus cerebellum of male Wistar (Mol:Wist) rats, crude membranes; species or system rat (male Wistar); conditions: 3H 8-OH DPAT binding IC50, 1 nM 3H-8-OH-DPAT, rat brain minus cerebellum membranes, 37° C., 15 min
Experimental: Male Wistar (Mol:Wist) rats (125-250 g) are sacrificed and the brain is dissected and weighed. The brain tissue minus cerebellum is homogenized (Ultra Turrax, 20 sec) in 10 ml of ice cold 50 nM Tris buffer pH 8.0 (at 25° C.) containing 120 mM NaCl, 4 mM CaCl2 and 4 mM MgCl2. The homogenate is centrifuged at 20,000 g for 10 min at 4° C. The pellet is homogenized in 10 ml of buffer and incubated at 37° C. for 10 min. The homogenate is centrifuged as above and the pellet is homogenized in 100 vol (w/v) ice cold buffer containing 10 μM of pargyline.
Incubation tubes kept on ice in triplicate receive 100 μl of drug solution in water (or water for total binding) and 1000 μl of tissue suspension (final tissue content corresponds to 10 mg original tissue). […] After incubation for 15 min the samples are filtered under vacuum (0-50 mBar) through Whatman GF/F filters (25 mm). The tubes are rinsed with 5 ml ice cold 0.9% NaCl which is then poured on the filters. Thereafter, the filters are washed with 2×5 ml 0.9% NaCl. The filters are placed in counting vials and 4 ml of appropriate scintillation fluid (e.g. Picofluor™ 15) are added. After shaking for 1 h and storage 2 h in the dark the content of radioactivity is determined by liquid scintillation counting. Specific binding is obtained by subtracting the nonspecific binding in the presence of 10 μM of 5-HT.
For determination of the inhibition of binding five concentrations of drugs covering 3 decades are used.
The IC50 -value is determined as the concentration, at which the binding is 50% of the total binding in control samples minus the nonspecific binding in the presence of 10 μM of 5-HT.

[3] = clinical studies; Glitz, Pohl, Drugs 1991; cited from earlier work

| ED50 [1] [µmol/kg] | IC50 [2] [nM] | Compound | usefulness in the treatment of anxiety disorders (in words) [3] |
| --- | --- | --- | --- |
| 0.44 | 15 | CCCN(CCC)CC1CCc2cc(Cl)c(NC(C)=O)cc21 (single isomer, unassigned; (-)) [Compound 11b, (-)-6-Acetylamino-5-chloro-1-(N,N-dipropylaminomethyl)indan] |  |
| 0.0052 | 4.1 | CCCN(CCC)CC1CCc2ccc(NC=O)cc21 (stereo not drawn) [Compound 1a, 1-(N,N-dipropylaminomethyl)-6-formylaminoindan] |  |
| 0.41 | 110 | CN(C)CC1CCc2ccc(NC=O)cc21 (stereo not drawn) [Compound 1b, 1-(N,N-dimethylaminomethyl)-6-formylaminoindan] |  |
| 0.33 | 42 | O=CNc1ccc2c(c1)C(CN1CCCCC1)CC2 (stereo not drawn) [Compound 1c, 6-formylamino-1-(1-piperidinomethyl)indan] |  |
| 0.01 | 0.89 | CCCN(CCC)CC1CCc2ccc(NC(C)=O)cc21 (stereo not drawn) [Compound 2a, 6-Acetylamino-1-(N,N-dipropylaminomethyl)indan] |  |
| 0.21 | 25 | CC(=O)Nc1ccc2c(c1)C(CN(C)C)CC2 (stereo not drawn) [Compound 2b, 6-Acetylamino-1-(N,N-dimethylaminomethyl)indan] |  |
| 2.2 | 5.1 | CCCN(CCC)CC1CCc2ccc(NC(=O)c3ccc(F)cc3)cc21 (stereo not drawn) [Compound 2c, 1-(N,N-dipropylaminomethyl)-6-(4-fluorobenzoylamino)indan] |  |
| 0.93 | 16 | CCCN(CCC)CC1CCc2ccc(NS(C)(=O)=O)cc21 (stereo not drawn) [Compound 2g, 1-(N,N-dipropylaminomethyl)-6-(methylsulphonylamino)indan] |  |
| 0.42 | 10 | CCCN(CCC)CC1CCc2ccc(NC(=O)N(C)C)cc21 (stereo not drawn) [Compound 4c, 6-(3,3-dimethyl-1-ureido)-1-(N,N-dipropylaminomethyl)indan] |  |
| 0.046 | 3.4 | CCCN(CCC)CC1CSc2ccc(NC=O)cc21 (stereo not drawn) [Compound 5a, 3-(N,N-dipropylaminomethyl)-5-formylamino-2,3-dihydrobenzothiophene] |  |
| 0.26 | 21 | CCCN(CCC)CC1CCc2cc(Cl)c(NC(C)=O)cc21 (stereo not drawn) [Compound 11a, 6-Acetylamino-5-chloro-1-(N,N-dipropylaminomethyl)indan] |  |
| 0.15 | 1.4 | CC(=O)Nc1ccc2c(c1)C(CN(C)CCCCC1CCCCC1)CC2 (stereo not drawn) [Compound 13a, 6-Acetylamino-1-[N-(4-cyclohexylbutan-1-yl)-N-methylaminomethyl]indan] |  |
| 0.22 | 3.4 | CC(=O)Nc1ccc2c(c1)C(CN(C)CCCCc1ccccc1)CC2 (stereo not drawn) [Compound 13b, 6-Acetylamino-1-[N-methyl-N-(4-phenylbutan-1-yl)aminomethyl]indan] |  |
| 0.66 | 1.5 | CC(=O)Nc1ccc2c(c1)C(CN(C)CCCCc1c[nH]c3ccccc13)CC2 (stereo not drawn) [Compound 13c, 6-Acetylamino-1-[N-[4-(indol-3-yl)butan-1-yl]-N-methylaminomethyl]indan] |  |
| 0.61 | 1.8 | CC(=O)Nc1ccc2c(c1)C(CN(C)CCN1CCNC1=O)CC2 (stereo not drawn) [Compound 13d, 6-Acetylamino-1-[N-[2-(2-imidazolidinon-1-yl)ethyl]-N -methylaminomethyl]indan] |  |
|  |  | CC1(C)CC(=O)N(CCCCN2CCN(c3ncccn3)CC2)C(=O)C1 [gepirone, 4,4-dimethyl-1-[4-[4-(2-pyrimidyl)-1-piperazinyl]butyl]-2,6-piperidinedione] | useful in the treatment of anxiety disorders |
|  |  | O=C1c2ccccc2S(=O)(=O)N1CCCCN1CCN(c2ncccn2)CC1 [ipsapirone, 2-[4-[4-(2-pyrimidyl)-1-piperazinyl]butyl]-1,2-benzothiazol-3(2H)-one-1,1-dioxide] | useful in the treatment of anxiety disorders |

| Compound | ED50 [1] [µmol/kg] | IC50 [2] [nM] | usefulness in the treatment of anxiety disorders (in words) [3] |
| --- | --- | --- | --- |
| CCCN(CCC)C1CCc2cccc(O)c2C1 (stereo not drawn) [8-OH DPAT, 8-hydroxy-2-dipropylaminotetralin, reference compound] | 0.1 |  |  |
